Bounds are passed on as bounds.

Broadly, the IC50 is the concentration needed to halve the response being measured.

The experiment has as its system HCT116 cells. Nature of the experiment: Inhibition of cell proliferation by CTG (CellTiter-Glo) luminescence assay. The settings on record: Homo sapiens, HCT-116; 72 h incubation, CellTiter-Glo; read-out: HCT116, IC50. The experiment is classed as cell-based. An excerpt: Test Example 2. Determination of Compound-Mediated Inhibition of Cell Proliferation by CTG (CellTiter-Glo) Luminescence Assay
Principle: The Promega CellTiter-Glo™ luciferase reagent was used. Luciferase consumes ATP to generate light; metabolically active cells continuously produce ATP through respiration and other processes. After adding an equal volume of CellTiter-Glo™ reagent to the culture medium, the resulting luminescence is directly proportional to the ATP content, which in turn correlates with the number of viable cells. Thus, the assay quantifies compound-induced suppression of cell proliferation.
Experimental Procedure: HCT116 cells (ATCC) were revived in complete medium (McCoy's 5a + 10 % FBS). After two passages, exponentially growing cells were harvested, counted, and resuspended to the appropriate density. A 100 µL aliquot of cell suspension (2 000 cells per well) was seeded into 96-well plates and incubated overnight (37 °C, 5 % CO2, 100 % relative humidity). Test compounds were dissolved in DMSO to prepare 10 mM stock solutions and serially diluted 1:3 in DMSO to generate nine concentration steps. Each DMSO solution was further diluted 200-fold into medium; 25 µL of the resulting solutions were added to the cell plates (final DMSO concentration […]). After 72 h incubation (37 °C, 5 % CO2), 50 µL of CellTiter-Glo reagent was added per well. Plates were shaken gently, incubated for 30 min at room temperature in the dark, and luminescence was read on an EnVision multimode reader. Percent inhibition was calculated as: Inhibition % = (1−As/Ac) × 100, [formula] where As = signal from compound-treated wells and Ac = signal from DMSO-only control wells. Concentration-response data were fitted in Excel with the XLfit add-in using the four-parameter logistic equation: Y = Bottom + (Top−Bottom)/[1+((IC50/X))^(∧)HillSlope], [formula] to derive the IC50 value for each compound. Table 2. IC50 of compounds
A general note: In ATP-based viability assays light output follows the ATP content of the culture.
In the case of `CC[C@@]1(O)C(=O)OCc2c1cc1n(c2=O)Cc2c-1c(=O)c1cc(F)c([C@H](O)C(F)(F)F)cc1n2C1CCCC1` (single isomer, unassigned) [Example 347], the IC50 was < 20 nM.

For the compound `CCN1CC[C@@H](n2c3c(c(=O)c4cc(F)ccc42)-c2cc4c(c(=O)n2C3)COC(=O)[C@]4(O)CC)C1` [Example 251, (S)-4-ethyl-8-fluoro-4-hydroxy-11-((R)-1-ethylpyrrolidin-3-yl)-1,12-dihydro-14H-pyrano[3',4':6,7]indolizino[2,1-b] quinoline-3,6,14(4H,11H)-trione], the IC50 is < 20 nM.

In the case of `CC[C@@]1(O)C(=O)OCc2c1cc1n(c2=O)Cc2c-1c(=O)c1cc(F)ccc1n2[C@@H]1CCN(C2CC(C)(C)C2)C1` [Example 254, (S)-4-ethyl-8-fluoro-4-hydroxy-11-((R)-1-(3,3-dimethylcyclobutyl)pyrrolidin-3-yl)-1,12-dihydro-14H-pyrano[3',4':6,7]indolizino[2,1-b]quinoline-3,6,14(4H,11H)-trione], the IC50 was < 20 nM.

In the case of `CC[C@@]1(O)C(=O)OCc2c1cc1n(c2=O)Cc2c-1c(=O)c1cc(F)ccc1n2[C@@H]1CCN(C2CC(F)(F)C2)C1` [Example 255, (S)-4-ethyl-8-fluoro-4-hydroxy-11-((R)-1-(3,3-difluorocyclobutyl)pyrrolidin-3-yl)-1,12-dihydro-14H-pyrano[3',4':6,7]indolizino[2,1-b]quinoline-3,6,14(4H,11H)-trione], the IC50 is < 20 nM.

As to `CCCN1CC[C@@H](n2c3c(c(=O)c4cc(F)ccc42)-c2cc4c(c(=O)n2C3)COC(=O)[C@]4(O)CC)C1` [Example 258, (S)-4-ethyl-8-fluoro-4-hydroxy-11-((R)-1-n-propylpyrrolidin-3-yl)-1,12-dihydro-14H-pyrano[3',4':6,7]indolizino[2,1-b] quinoline-3,6,14(4H,11H)-trione], the 50% inhibitory concentration (IC50) was < 20 nM.

As for `CC[C@@]1(O)C(=O)OCc2c1cc1n(c2=O)Cc2c-1c(=O)c1cc(F)ccc1n2[C@@H]1CCN(CC(C)C)C1` [Example 260, (S)-4-ethyl-8-fluoro-4-hydroxy-11-((R)-1-isobutylpyrrolidin-3-yl)-1H-pyrano[3',4':6,7]indolizino[2,1-b]quinoline-3,6,14 (4H,11H,12H)-trione], the IC50 is < 20 nM.

Turning to `CCC(CC)N1CC[C@@H](n2c3c(c(=O)c4cc(F)ccc42)-c2cc4c(c(=O)n2C3)COC(=O)[C@]4(O)CC)C1` [Example 261, (S)-4-ethyl-8-fluoro-4-hydroxy-11-((R)-1-(pentan-3-yl)pyrrolidin-3-yl)-1H-pyrano[3,4:6,7]indolizino[2,1-b]quinoline-3,6,14 (4H,11H,12H)-trione], the IC50 was < 20 nM.

Consider `CC[C@@]1(O)C(=O)OCc2c1cc1n(c2=O)Cc2c-1c(=O)c1cc(F)ccc1n2[C@@H]1CCN(C(C)C)C1` [Example 263, (S)-4-ethyl-8-fluoro-4-hydroxy-11-((R)-1-isopropylpyrrolidin-3-yl)-1H-pyrano[3,4:6,7]indolizino[2,1-b]quinoline-3,6,14 (4H,11H,12H)-trione], for which the IC50 is < 20 nM.

As to `CC[C@@]1(O)C(=O)OCc2c1cc1n(c2=O)Cc2c-1c(=O)c1cc(F)ccc1n2[C@@H]1CCN(C2CCC(F)(F)CC2)C1` [Example 267, (S)-11-((R)-1-(4,4-difluorocyclohexyl)pyrrolidin-3-yl)-4-ethyl-8-fluoro-4-hydroxy-1H-pyrano[3,4:6,7]indolizino[2,1-b]quinoline-3,6,14(4H,11H,12H)-trione], the IC50 is < 20 nM.

`CC[C@@]1(O)C(=O)OCc2c1cc1n(c2=O)Cc2c-1c(=O)c1cc(F)ccc1n2[C@@H]1CCN(C2CC3(CCC3)C2)C1` [Example 270, (S)-4-ethyl-8-fluoro-4-hydroxy-11-((R)-1-(spiro[3.3]heptan-2-yl)pyrrolidin-3-yl)-1H-pyrano[3,4:6,7]indolizino[2,1-b] quinoline-3,6,14(4H,11H,12H)-trione]: the IC50 is < 20 nM.

With `CC[C@@]1(O)C(=O)OCc2c1cc1n(c2=O)Cc2c-1c(=O)c1cc(F)ccc1n2[C@@H]1CCN(C2CC3(CC3)C2)C1` [Example 271, (S)-4-ethyl-8-fluoro-4-hydroxy-11-((R)-1-(spiro[2.3]hexan-5-yl)pyrrolidin-3-yl)-1H-pyrano[3',4':6,7]indolizino[2,1-b]quinoline-3,6,14(4H,11H,12H)-trione], the IC50 is < 20 nM.

As for `CC[C@@]1(O)C(=O)OCc2c1cc1n(c2=O)Cc2c-1c(=O)c1cc(F)ccc1n2[C@@H]1CCN(C2CC3CC3C2)C1` (stereo partly drawn) [Example 273, (4S)-11-((3R)-1-(bicyclo[3.1.0]hexan-3-yl)pyrrolidin-3-yl)-4-ethyl-8-fluoro-4-hydroxy-1H-pyrano[3',4':6,7]indolizino[2,1-b]quinoline-3,6,14(4H,11H,12H)-trione], the IC50 is < 20 nM.

With `CC[C@@]1(O)C(=O)OCc2c1cc1n(c2=O)Cc2c-1c(=O)c1cc(F)ccc1n2[C@@H]1CCN(C2CC2)C1` [Example 274, (4S)-11-((3R)-1-cyclopropylpyrrolidin-3-yl)-4-ethyl-8-fluoro-4-hydroxy-1H-pyrano[3',4':6,7]indolizino[2,1-b]quinoline-3,6,14(4H,11H,12H)-trione], the IC50 is < 20 nM.

For the compound `CC[C@@]1(O)C(=O)OCc2c1cc1n(c2=O)Cc2c-1c(=O)c1cc(F)c(F)cc1n2[C@@H]1CCN(C)C1` [Example 277], the IC50 is < 20 nM.

On to `CC[C@@]1(O)C(=O)OCc2c1cc1n(c2=O)Cc2c-1c(=O)c1cc(F)c(C)cc1n2[C@@H]1CCN(C2CC(F)(F)C2)C1` [Example 280], for which the 50% inhibitory concentration (IC50) is < 20 nM.

Regarding `CC[C@@]1(O)C(=O)OCc2c1cc1n(c2=O)Cc2c-1c(=O)c1cc(F)c(Cl)cc1n2[C@@H]1CCN(C2CCC2)C1` [Example 282], the IC50 is < 20 nM.

As to `CC[C@@]1(O)C(=O)OCc2c1cc1n(c2=O)Cc2c-1c(=O)c1cc(F)c(Cl)cc1n2[C@@H]1CCN(C)C1` [Example 283], the IC50 was < 20 nM.

For `CC[C@@]1(O)C(=O)OCc2c1cc1n(c2=O)Cc2c-1c(=O)c1cc(F)c(CO)cc1n2C1CC2(CCC2)C1` [Example 312], the IC50 is < 20 nM.

For `CC[C@@]1(O)C(=O)OCc2c1cc1n(c2=O)Cc2c-1c(=O)c1cc(F)c(CC(C)O)cc1n2C1CCC(C)(C)CC1` (stereo partly drawn) [Example 317], the IC50 is < 20 nM.

Take `CCC1(O)C(=O)OCc2c1cc1n(c2=O)Cc2c-1c(=O)c1cc(F)c(CO)cc1n2C12CC(C1)C2` (stereo not drawn) [Example 327]: the IC50 was < 20 nM.

With `CC[C@@]1(O)C(=O)OCc2c1cc1n(c2=O)Cc2c-1c(=O)c1cc(F)c(N)cc1n2-c1cc(C)cc(C)c1` [Example 350], the IC50 is < 20 nM.

Take `CC[C@@]1(O)C(=O)OCc2c1cc1n(c2=O)Cc2c-1c(=O)c1cc(F)c(N)cc1n2C1CC2(CCC2)C1` [Example 358]: the IC50 was < 20 nM.

Consider `CC[C@@]1(O)C(=O)OCc2c1cc1n(c2=O)Cc2c-1c(=O)c1cc(F)c(N)cc1n2C12CC(C1)C2` [Example 359], for which the IC50 is < 20 nM.

Regarding `CC[C@@]1(O)C(=O)OCc2c1cc1n(c2=O)Cc2c-1c(=O)c1cc(F)ccc1n2[C@@H]1CCCN(C2CCCC2)C1` [Example 370], the half-maximal inhibitory concentration (IC50) is < 20 nM.

Take `CC[C@@]1(O)C(=O)OCc2c1cc1n(c2=O)Cc2c-1c(=O)c1cc(F)ccc1n2[C@H]1CCCN(C2CC(F)(F)C2)C1` [Example 372]: the IC50 was < 20 nM.

Regarding `CC[C@@]1(O)C(=O)OCc2c1cc1n(c2=O)Cc2c-1c(=O)c1cc(F)ccc1n2C[C@H]1CCN(C2CC(F)(F)C2)C1` [Example 402], the IC50 is < 20 nM.

Regarding `CC[C@@]1(O)C(=O)OCc2c1cc1n(c2=O)Cc2c-1c(=O)c1cc(F)ccc1n2C[C@H]1CCN(C(C)C)C1` [Example 404], the IC50 is < 20 nM.
